Entries after “also recorded” stand apart in the source; their conditions may differ.

For test [1], the system named is neutrophils. Put plainly: Nuclear area and nuclear morphology (perimeter vs. Heywood circularity factor) of activated neutrophils, Sytox Green staining, automated microscopy. The class given is cell-based, Human. As to the method:
During NET formation there are discrete changes in nuclear size and shape. According to the invention four distinct nuclear morphologies were defined (Fig. 1) (i) lobulated, (ii) delobulated, (iii) diffused NETs and (iv) spread NETs. […] The nuclear morphology, i.e. the morphology of the nuclear DNA was analyzed in more detail by plotting the perimeter vs. the Heywood circularity factor.
In contrast, most nuclei of neutrophils activated for 240 min, had diffused nuclei, or spread NETs that could be measured by their large perimeter and low Heywood circularity factor (Fig. 3b).
For nuclear size and shape, neutrophils were activated with PMA for 240 min, fixed with PFA (2%), permeabilized with Triton X100 (0.1%) and stained with Sytox Green. The four distinct nuclear morphologies during the progression to NET formation are lobulated, delobulated or diffused NETs and spread NETs (Fig.1). Bar=10 µm
Neutrophils were activated with PMA (40nM). Fifteen min after activation the nuclei were homogenous and smaller than 100 µm^2 in area while the nuclei of activated neutrophils were heteregenous and between 150 and more than 350 µm^2 (Figs. 3). Each dot in Figs. 3 (Dot plot of nuclei analyzed for perimeter vs. Heywood circularity factor) represents a nucleus. Gates were set to distinguish between lobulated, delobulated, diffused NETs and spread NETs.
In Fig. 3a fifteen min after activation, more than 95% of the nuclei were either lobulated or delobulated. […] The images were generated by an automated microscopy system and analyzed by image analysis software Scan ^R.

In test [2] the test system is neutrophils. The experiment in a line: Quantification of cell viability with Sytox Green, fluorometer. The class given is cell-based, Human. The conditions noted are these: PMA (40 nM) for 240 min, Sytox Green (2µM). As to the method:
Neutrophils were activated with PMA (40 nM) for 15 min and 240 min, stained with the vital dye Sytox Green (2µM) and analyzed with a fluorometer. […] Different numbers of neutrophils per well were plated and activated with PMA for 240 min or incubated with the non ionic detergent NP-40.

As for `CCCCCCCCCCCCCC(=O)O[C@@H]1[C@@H](C)[C@@]2(O)[C@@H](C=C(CO)C[C@]3(O)C(=O)C(C)=C[C@@H]23)[C@@H]2C(C)(C)[C@]12OC(C)=O` [PMA, phorbol-12-myristate-13-acetate], the “nuclei either diffused or already made NETs” value in the test with neutrophils [1] (240 min after activation with PMA (40nM)) is “more than 95%”. In the test on neutrophils [1] (fifteen min after activation with PMA (40nM)), the “nuclei either lobulated or delobulated” value is “more than 95%”. For the same compound, the “nuclear area (mean)” value in the test on neutrophils [1] (neutrophils activated with PMA (40 nM) for 240 min, SD: 109µm^2, n: 2000) was 244 µm^2. The “cell death (Sytox Green fluorescence)” value in the test on neutrophils [2] is recorded as “fluorescent, indicating cell death; also recorded: most cells die after activation”.

The values are drawn from patent EP2455756A1, “Cell-based screening assay for inhibitors of NET formation” (Max-Planck-Gesellschaft zur Förderung der Wissenschaften …, priority 2010, dated 2012).
